# In US20240342175A1, “Compositions and Methods for Treating Spinal Cord Injury and Synaptic Dysfunction” (priority 2021, published 2024):
# Like-named read-outs stand apart in the source and are kept apart here.
# Key:
# Fmr1 knock-out mice [1] = test: Open field / hyperactivity in Fmr1 knock-out mice; type: in vivo; design: key: X indicates failure to ameliorate the phenotype; Y reversed the phenotype; conditions: repeat experiment, 15 days
# Protocol: (§1) Fmr1 knock-out mice (n=10) were orally administered 10 mg/kg/day or 100 mg/kg/day belumosudil or vehicle (BID) for 15 days. Control groups included wild type mice and knock out mice with vehicle. Mice treated with 100 mg/kg belumosudil ameliorated the following behavioral phenotypes: open field/hyperactivity, self-grooming/stereotypy, hyponeophagia/anxiety, nesting/test of daily living, 3-chamber social novelty/sociability; resident intruder and fear conditioning.
# (§2) The experiment was repeated where knock out mice received belumosudil at 20 mg/kg/day, 60 mg/kg/day and 100 mg/kg/day (BID) for 15 days. One group of knock out mice received 10 mg/kg/day belumosudil in combination with 10 mg/kg/day minocycline for 15 days. Control groups included wild type mice and knock out mice with vehicle. The results are set forth below, where X indicates failure to ameliorate the phenotype and Y reversed the phenotype: […]
# Fmr1 knock-out mice [2] = test: Self-grooming / stereotypy in Fmr1 knock-out mice; type: in vivo; design: key: X indicates failure to ameliorate the phenotype; Y reversed the phenotype; conditions: repeat experiment, 15 days
# Protocol: as §1, §2
# Fmr1 knock-out mice [3] = test: Hyponeophagia / anxiety in Fmr1 knock-out mice; type: in vivo; design: key: X indicates failure to ameliorate the phenotype; Y reversed the phenotype; conditions: repeat experiment, 15 days
# Protocol: as §1, §2
# Fmr1 knock-out mice [4] = test: Nesting / test of daily living in Fmr1 knock-out mice; type: in vivo; design: key: X indicates failure to ameliorate the phenotype; Y reversed the phenotype; conditions: repeat experiment, 15 days
# Protocol: as §1, §2
# Fmr1 knock-out mice [5] = test: Novel object recognition / cognition in Fmr1 knock-out mice; type: in vivo; design: key: X indicates failure to ameliorate the phenotype; Y reversed the phenotype; conditions: repeat experiment, 15 days
# Protocol: as §1, §2
# Fmr1 knock-out mice [6] = test: 3-chamber social novelty / sociability in Fmr1 knock-out mice; type: in vivo; design: key: X indicates failure to ameliorate the phenotype; Y reversed the phenotype; conditions: repeat experiment, 15 days
# Protocol: as §1, §2
# Fmr1 knock-out mice [7] = test: Resident intruder in Fmr1 knock-out mice; type: in vivo; design: key: X indicates failure to ameliorate the phenotype; Y reversed the phenotype; conditions: repeat experiment, 15 days
# Protocol: as §1, §2
# Fmr1 knock-out mice [8] = test: Fear conditioning in Fmr1 knock-out mice; type: in vivo; design: key: X indicates failure to ameliorate the phenotype; Y reversed the phenotype; conditions: repeat experiment, 15 days
# Protocol: as §1, §2
# [9] = cited from earlier work
# [10] = belumosudil 100 mg/kg/day (BID)
structure (smiles),measurement,setting,value
CC(C)NC(=O)COc1cccc(-c2nc(Nc3ccc4[nH]ncc4c3)c3ccccc3n2)c1 [belumosudil],Open Field: Hyperactivity,Fmr1 knock-out mice [1]; belumosudil 20 mg/kg/day (BID),X
same,Open Field: Hyperactivity,Fmr1 knock-out mice [1]; belumosudil 60 mg/kg/day (BID),X
same,Open Field: Hyperactivity,Fmr1 knock-out mice [1]; [10],Y
same,Self-Grooming: Stereotypy,Fmr1 knock-out mice [2]; belumosudil 20 mg/kg/day (BID),X
same,Self-Grooming: Stereotypy,Fmr1 knock-out mice [2]; belumosudil 60 mg/kg/day (BID),X
same,Self-Grooming: Stereotypy,Fmr1 knock-out mice [2]; [10],Y
same,Hyponeophagia: Anxiety,Fmr1 knock-out mice [3]; belumosudil 20 mg/kg/day (BID),X
same,Hyponeophagia: Anxiety,Fmr1 knock-out mice [3]; belumosudil 60 mg/kg/day (BID),X
same,Hyponeophagia: Anxiety,Fmr1 knock-out mice [3]; [10],Y
same,Nesting: Test of Daily Living,Fmr1 knock-out mice [4]; belumosudil 20 mg/kg/day (BID),Y
same,Nesting: Test of Daily Living,Fmr1 knock-out mice [4]; belumosudil 60 mg/kg/day (BID),Y
same,Nesting: Test of Daily Living,Fmr1 knock-out mice [4]; [10],Y
same,Novel Object Recognition: Cognition,Fmr1 knock-out mice [5]; belumosudil 20 mg/kg/day (BID),X
same,Novel Object Recognition: Cognition,Fmr1 knock-out mice [5]; belumosudil 60 mg/kg/day (BID),X
same,Novel Object Recognition: Cognition,Fmr1 knock-out mice [5]; [10],X
same,3 Chamber Social Novelty: Sociability,Fmr1 knock-out mice [6]; belumosudil 20 mg/kg/day (BID),X
same,3 Chamber Social Novelty: Sociability,Fmr1 knock-out mice [6]; belumosudil 60 mg/kg/day (BID),X
same,3 Chamber Social Novelty: Sociability,Fmr1 knock-out mice [6]; [10],Y
same,Resident Intruder,Fmr1 knock-out mice [7]; belumosudil 20 mg/kg/day (BID),X
same,Resident Intruder,Fmr1 knock-out mice [7]; belumosudil 60 mg/kg/day (BID),Y
same,Resident Intruder,Fmr1 knock-out mice [7]; [10],Y
same,Fear Conditioning,Fmr1 knock-out mice [8]; belumosudil 20 mg/kg/day (BID),X
same,Fear Conditioning,Fmr1 knock-out mice [8]; belumosudil 60 mg/kg/day (BID),Y
same,Fear Conditioning,Fmr1 knock-out mice [8]; [10],Y
same,AE: cough,[9]; 200 mg once daily (QD) arm,18
same,AE: diarrhea,[9]; 200 mg once daily (QD) arm,24%
same,AE: dyspnea,[9]; 200 mg once daily (QD) arm,20%
same,AE: edema,[9]; 200 mg once daily (QD) arm,24%
same,AE: fatigue,[9]; 200 mg once daily (QD) arm,30%
same,AE: liver related investigations,[9]; 200 mg once daily (QD) arm,20%
same,AE: nausea,[9]; 200 mg once daily (QD) arm,23%
same,Serious AE: nausea,[9]; 200 mg once daily (QD) arm,3%
same,Serious AE: pneumonia,[9]; 200 mg once daily (QD) arm,3%
same,Serious AE: pyrexia,[9]; 200 mg once daily (QD) arm,5%
same,Serious AE: vomiting,[9]; 200 mg once daily (QD) arm,3%
same,AE: cough,[9]; 200 mg twice daily (BID) arm,14%
same,AE: diarrhea,[9]; 200 mg twice daily (BID) arm,18%
same,AE: dyspnea,[9]; 200 mg twice daily (BID) arm,12%
same,AE: edema,[9]; 200 mg twice daily (BID) arm,15%
same,AE: fatigue,[9]; 200 mg twice daily (BID) arm,18%
same,AE: liver related investigations,[9]; 200 mg twice daily (BID) arm,23%
same,AE: nausea,[9]; 200 mg twice daily (BID) arm,20%
same,Serious AE: nausea,[9]; 200 mg twice daily (BID) arm,2%
same,Serious AE: pneumonia,[9]; 200 mg twice daily (BID) arm,3%
same,Serious AE: pyrexia,[9]; 200 mg twice daily (BID) arm,0
same,Serious AE: vomiting,[9]; 200 mg twice daily (BID) arm,2%
same,safety and efficacy in clinical trial,"[9]; 132 patients, 200 mg QD or 200 mg BID",safe and efficacious
